Earlier results as cited in patent US20230022721A1, “COMPOSITIONS AND METHODS FOR INHIBITION AND INTERRUPTION OF BIOFILM FORMATION” (DENTSPLY SIRONA Inc., priority 2016, published 2023).

What was measured:
[1] = test system: Bacteria: E. coli; S. aureus; S. typhimurium
[2] = test system: Bacteria: S. aureus; P. aeruginosa; E. coli
[3] = test system: Bacteria: Gram-positive bacteria; settings: vs model compound
[4] = test system: Fungi: C. albicans; A. niger
[5] = test system: Bacteria: P. aeruginosa; Staphylococcus spp.

C=CC(=O)Oc1ccc(Cl)c2cccnc12
Comparison of Polymers with Monomer [1]: The homopolymer and the copolymers with acrylamide are both less effective than the monomer.^[13]

C=C(C)C(=O)OCC(O)CSc1nnc(C)s1 (centres unmarked)
Comparison of Polymers with Monomer [2]: The homopolymer is more effective than the monomer.^[8]

C=Cc1ccc(C[S+]2CCCC2)cc1
Comparison of Polymers with Monomer [3]: The homopolymer is more effective than the corresponding model compound (p- ethylbenzyl tetramethylene sulforium tetrafluoroborate).

Cc1cc(NS(=O)(=O)c2ccc(N3C(=O)C=CC3=O)cc2)no1
Comparison of Polymers with Monomer [4]: The homopolymer is more effective than the monomer at all concentrations.^[6]

C=CC(=O)Oc1cc(Cl)ccc1Oc1ccc(Cl)cc1Cl
Comparison of Polymers with Monomer [5]: The homopolymer and copolymers with methyl methacrylate, styrene are all less effective than the monomer.^[10]
